Among the test systems are RPMI-8226; EKVX; RXF 393; SK-OV-3; NCI-H23; PC-3; NCI/ADR-RES; HOP-62; HCT-116; SW-620; HCT-15; IGROV-1; 786-0; OVCAR-8; SK-MEL-2; NCI-H226; T47D.
Common to all, as to experiment: NCI anticancer screen, dose series, 48 h

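Growth conditions: 96-well plates. Treatment: test compound, 48 hours, 5 concentrations. Analysis: linear interpolation between bracketing concentrations; unreached endpoints set to highest concentration. At the GI50, growth is halved.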 The source made the active and inactive calls. No stated cut-off is given here; in the data, active = GI50 up to about 1.1 µM and inactive = higher.

With `C[C@H](CCC1=NCCN1)[C@H]1CC[C@H]2[C@@H]3CC[C@@H]4C[C@H](O)CC[C@]4(C)[C@H]3C[C@H](O)[C@]12C`, the GI50 is 11.3 µM (inactive) in the assay on RPMI-8226; 18.5 µM (inactive) with EKVX; 18 µM (inactive) in the assay on RXF 393; 18 µM (inactive) with SK-OV-3; 14.1 µM (inactive) with NCI-H23; 4.57 µM (inactive) in the assay with PC-3. For the same molecule, the GI50 was > 100 µM (inactive) in the assay on NCI/ADR-RES; 15.5 µM (inactive) in the assay on HOP-62; 20.5 µM (inactive) in the assay on HCT-116; 19.9 µM (inactive) with SW-620; 53.1 µM with HCT-15; 7.38 µM (inactive) with IGROV-1. Moreover, the GI50 in the assay on 786-0 is 16.3 µM (inactive); in the assay with OVCAR-8, 15.5 µM (inactive); in the assay on SK-MEL-2, 13.8 µM (inactive); with NCI-H226, 14.3 µM (inactive); in the assay with T47D, 13.6 µM (inactive).
As to `N=C(CCl)NC1CN2CCC1CC2` (centres undefined), the GI50 was > 100 µM (inactive) with RPMI-8226; 67.5 µM (inactive) in the assay with EKVX; > 100 µM (inactive) with RXF 393; > 100 µM (inactive) in the assay with SK-OV-3; > 100 µM (inactive) in the assay with NCI-H23; > 100 µM (inactive) in the assay on PC-3. Further, the GI50 was > 100 µM (inactive) with NCI/ADR-RES; > 100 µM (inactive) in the assay on HOP-62; > 100 µM (inactive) with HCT-116; 68.7 µM (inactive) in the assay on SW-620; above 100 µM in the assay with HCT-15; > 100 µM (inactive) in the assay with IGROV-1. In addition, the GI50 in the assay on 786-0 is 97.5 µM (inactive); in the assay with OVCAR-8, > 100 µM (inactive); in the assay on SK-MEL-2, > 100 µM (inactive); in the assay with NCI-H226 it was > 100 µM (inactive); in the assay on T47D, 56.1 µM (inactive).
For `OC(c1ccc(-c2ccccc2)cc1)C(F)(F)c1nc2ccccc2o1` (centres undefined), the GI50 with RPMI-8226 was 51.3 µM (inactive); in the assay on EKVX, > 73.3 µM (inactive); in the assay with RXF 393, 16.4 µM (inactive); in the assay with SK-OV-3, 37.2 µM (inactive); in the assay on NCI-H23, 39.9 µM (inactive); in the assay with PC-3 it was 65.9 µM (inactive). Also, the GI50 with NCI/ADR-RES is > 79.8 µM (inactive); in the assay with HOP-62, 30.7 µM (inactive); with HCT-116, 45.2 µM (inactive); with SW-620, > 100 µM (inactive); with HCT-15, above 100 µM; with IGROV-1, 34 µM (inactive). The GI50 with 786-0 is 25.9 µM (inactive); in the assay on OVCAR-8, 34.8 µM (inactive); in the assay with SK-MEL-2 it was > 100 µM (inactive); in the assay with NCI-H226 it was > 48.3 µM (inactive); in the assay on T47D, 31.8 µM (inactive).
In the case of `CC(C)C[C@H](NC(=O)[C@H](Cc1cccc2ccccc12)NS(=O)(=O)c1cccc2cccnc12)B(O)O`, the GI50 was < 0.01 µM (active) in the assay on RPMI-8226; 0.372 µM (active) with EKVX; < 0.015 µM (active) with RXF 393; 0.359 µM (active) in the assay with SK-OV-3; < 0.0226 µM (active) in the assay on NCI-H23; < 0.0272 µM (active) in the assay on PC-3. Further, the GI50 with NCI/ADR-RES is 2.32 µM (inactive); in the assay with HOP-62 it was 0.0444 µM (active); with HCT-116 it was < 0.0133 µM (active); with SW-620 it was < 0.0176 µM (active); in the assay on HCT-15, 0.227 µM; in the assay with IGROV-1 it was < 0.0208 µM (active). Besides, the GI50 with 786-0 was 0.0222 µM (active); in the assay with OVCAR-8, 0.0557 µM (active); in the assay on SK-MEL-2, < 0.0158 µM (active); with NCI-H226, 0.000208 µM (active); in the assay with T47D, < 0.01 µM (active).
With `O=C(CN1CCN(Cc2ccccc2)CC1)c1ccc2[nH]c(=O)oc2c1`, the GI50 in the assay on RPMI-8226 is > 100 µM (inactive); with EKVX it was > 66.2 µM (inactive); in the assay on RXF 393, > 100 µM (inactive); in the assay with SK-OV-3, > 100 µM (inactive); in the assay on NCI-H23 it was > 100 µM (inactive); in the assay on PC-3 it was > 100 µM (inactive). The GI50 with NCI/ADR-RES was > 100 µM (inactive); in the assay with HOP-62 it was > 100 µM (inactive); in the assay on HCT-116, > 100 µM (inactive); in the assay on SW-620, > 100 µM (inactive); in the assay with HCT-15, above 100 µM; in the assay on IGROV-1, 99.3 µM (inactive). Moreover, the GI50 is > 100 µM (inactive) with 786-0; > 100 µM (inactive) with OVCAR-8; > 100 µM (inactive) with SK-MEL-2; > 50.6 µM (inactive) in the assay on NCI-H226; > 100 µM (inactive) in the assay on T47D.
Turning to `Oc1cc(-c2ccccc2Cl)nc2cc3c(cc12)OCO3`, the GI50 in the assay on RPMI-8226 is 0.101 µM (active); in the assay with EKVX it was 0.155 µM (active); with RXF 393 it was 0.0416 µM (active); in the assay with SK-OV-3 it was 0.17 µM (active); with NCI-H23, 0.122 µM (active); in the assay with PC-3 it was 0.0451 µM (active). Also, the GI50 with NCI/ADR-RES is 0.0575 µM (active); in the assay on HOP-62, 0.132 µM (active); in the assay on HCT-116, 0.0528 µM (active); in the assay on SW-620 it was 0.0698 µM (active); with HCT-15, 0.0371 µM; with IGROV-1, 0.173 µM (active). The GI50 is 0.32 µM (active) in the assay on 786-0; 0.198 µM (active) in the assay with OVCAR-8; 0.0719 µM (active) in the assay with SK-MEL-2; 0.13 µM (active) with NCI-H226; 26.6 µM (inactive) in the assay with T47D.
With `O=C1C(=O)N(C2CCCCC2)C(=S)N1C1CCCCC1`, the GI50 in the assay on RPMI-8226, with EKVX, in the assay on RXF 393, with SK-OV-3, in the assay on NCI-H23 and in the assay on PC-3 was > 100 µM (inactive) each time. The GI50 was > 100 µM (inactive) in the assay on NCI/ADR-RES; > 100 µM (inactive) in the assay on HOP-62; > 100 µM (inactive) with HCT-116; > 100 µM (inactive) in the assay with SW-620; above 100 µM with HCT-15; > 100 µM (inactive) with IGROV-1. The GI50 in the assay with 786-0, in the assay with OVCAR-8, in the assay with SK-MEL-2, with NCI-H226 and with T47D was > 100 µM (inactive) throughout.
`Cc1ccc(S(=O)(=O)/N=C(\NN)Nc2ccc(Cl)cc2)cc1`: the GI50 was > 100 µM (inactive) in the assay with RPMI-8226; > 100 µM (inactive) with EKVX; 60.7 µM (inactive) in the assay with RXF 393; > 100 µM (inactive) in the assay on SK-OV-3; > 100 µM (inactive) with NCI-H23; > 100 µM (inactive) in the assay on PC-3. Further, the GI50 in the assay on NCI/ADR-RES was > 100 µM (inactive); in the assay with HOP-62 it was > 100 µM (inactive); in the assay on HCT-116, > 100 µM (inactive); in the assay with SW-620 it was > 100 µM (inactive); in the assay on HCT-15 it was above 100 µM; in the assay on IGROV-1, > 100 µM (inactive). Also, the GI50 was > 100 µM (inactive) in the assay on 786-0; > 100 µM (inactive) in the assay with OVCAR-8; > 100 µM (inactive) in the assay on SK-MEL-2; 58.3 µM (inactive) in the assay with NCI-H226; 88.3 µM (inactive) in the assay on T47D.
As to `O=[N+]([O-])c1ccc(S(=O)(=O)N=Ic2ccccc2)cc1`, the GI50 in the assay with RPMI-8226 is > 100 µM (inactive); in the assay on EKVX, 97.7 µM (inactive); in the assay on RXF 393, > 100 µM (inactive); in the assay on SK-OV-3, > 100 µM (inactive); with NCI-H23 it was > 100 µM (inactive); in the assay with PC-3, > 100 µM (inactive). The GI50 in the assay with NCI/ADR-RES was > 100 µM (inactive); in the assay on HOP-62, > 100 µM (inactive); in the assay on HCT-116, > 100 µM (inactive); with SW-620 it was > 100 µM (inactive); in the assay with HCT-15 it was above 100 µM; in the assay on IGROV-1, > 100 µM (inactive). Also, the GI50 in the assay on 786-0, in the assay with OVCAR-8, in the assay on SK-MEL-2, in the assay on NCI-H226 and in the assay on T47D was > 100 µM (inactive) each time.
For the molecule `N#CC1=C(N)N(/N=C/c2ccco2)C(c2ccco2)C1(C#N)C#N` (centres undefined), the GI50 in the assay with RPMI-8226 was 20.8 µM (inactive); in the assay on EKVX, 19.5 µM (inactive); in the assay with RXF 393, 10.7 µM (inactive); in the assay with SK-OV-3, 33.7 µM (inactive); in the assay on NCI-H23, 19.6 µM (inactive); in the assay on PC-3, 23 µM (inactive). The GI50 in the assay with NCI/ADR-RES is 25.1 µM (inactive); in the assay with HOP-62, 23.2 µM (inactive); with HCT-116, 12.7 µM (inactive); in the assay with SW-620 it was 11.2 µM (inactive); with HCT-15, 15.3 µM; with IGROV-1 it was 14.6 µM (inactive). Further, the GI50 was 17.2 µM (inactive) in the assay on 786-0; 19.7 µM (inactive) in the assay on OVCAR-8; 24.1 µM (inactive) with SK-MEL-2; 18.6 µM (inactive) with NCI-H226; 12.4 µM (inactive) with T47D.
On to `NCC(O)CNC(=O)c1ccc(-c2ccc(-c3ccc(C(=O)NCC(O)CN)cc3)o2)cc1` (centres undefined), for which the GI50 is > 100 µM (inactive) in the assay on RPMI-8226; 27.7 µM (inactive) in the assay with EKVX; 18.9 µM (inactive) in the assay on RXF 393; 23.9 µM (inactive) in the assay with SK-OV-3; 36.1 µM (inactive) with NCI-H23; 21.2 µM (inactive) in the assay with PC-3. Further, the GI50 in the assay on NCI/ADR-RES is > 100 µM (inactive); in the assay with HOP-62, 25.3 µM (inactive); in the assay on HCT-116, 22.4 µM (inactive); in the assay with SW-620, > 100 µM (inactive); in the assay with HCT-15, 57.8 µM; in the assay on IGROV-1, 30.8 µM (inactive). The GI50 in the assay on 786-0 is 23.3 µM (inactive); in the assay on OVCAR-8 it was 29.6 µM (inactive); in the assay with SK-MEL-2 it was 53.7 µM (inactive); in the assay on NCI-H226, 22.6 µM (inactive); in the assay with T47D it was 34.6 µM (inactive).
As to `Cc1cc2c3c(c1)CCCN3CCC2`, the GI50 in the assay on RPMI-8226, with EKVX, in the assay on RXF 393, in the assay with SK-OV-3, in the assay with NCI-H23 and in the assay on PC-3 was > 10 µM (inactive) in each case. The GI50 is > 10 µM (inactive) with NCI/ADR-RES; > 10 µM (inactive) in the assay with HOP-62; > 10 µM (inactive) in the assay with HCT-116; > 10 µM (inactive) in the assay on SW-620; above 10 µM in the assay with HCT-15; > 10 µM (inactive) in the assay on IGROV-1. The GI50 in the assay with 786-0, in the assay on OVCAR-8, in the assay with SK-MEL-2, in the assay with NCI-H226 and in the assay on T47D was > 10 µM (inactive) each time.

For the origin of these results see ChEMBL document CHEMBL1201862, “PubChem BioAssay data set” (2004).
